According to BindingDB's records for doi:10.1021/jm020072w (University of California, 2002):

target: juvenile hormone esterase (Trichoplusia ni); assay: In vitro inhibition of Trichoplusia Juvenile Hormone Esterase.

**Q.** How did the IC50 turn out when `CCCCCC[Se](=O)CC(=O)C(F)(F)F` (configuration not stated) was run?
**A.** 0.000537 µM

**Q.** `CCCCCCCCC(=O)C(F)F` was tested. Which IC50 did it give?
**A.** 10 µM

**Q.** `CCCCCCC#CC(=O)C(F)(F)F` was tested. Which IC50 did it give?
**A.** 0.398 µM

**Q.** How did the IC50 turn out when `CCCCCCOCC(=O)C(F)(F)F` was run?
**A.** 0.0832 µM

**Q.** For `CCCCCCCCC(=O)C(F)(F)F`, which IC50 is on record?
**A.** 6.76 µM

**Q.** `CCCCCCOCC(C)=O` was tested. Which IC50 did it give?
**A.** 490 µM

**Q.** `CCCCCCC=CC(=O)C(F)(F)F` was tested. Which IC50 did it give?
**A.** 79.4 µM
